{"source": "ChEMBL document CHEMBL3124792", "about": "“Discovery and preclinical characterization of the cyclopropylindolobenzazepine BMS-791325, a potent allosteric inhibitor of the hepatitis C virus NS5B polymerase” (J Med Chem, 2014)"}
{"system": "not listed separately", "test": "Cytotoxicity against human HuH7 cells by Alamar blue assay", "format": "cell-based", "settings": "Huh-7 cells", "units": {"CC50": "µM"}}
{"smiles": "CN(C)S(=O)(=O)NC(=O)c1ccc2c(C3CCCCC3)c3n(c2c1)CC(C(=O)N1CCOCC1)=Cc1ccccc1-3", "CC50": "> 10"}
{"smiles": "COc1ccc2c(c1)C=C(C(=O)N1CCOCC1)Cn1c-2c(C2CCCCC2)c2ccc(C(=O)NS(=O)(=O)N(C)C)cc21", "CC50": "> 10"}
{"smiles": "O=C(O)c1ccc2c(C3CCCCC3)c3n(c2c1)C[C@]1(C(=O)N2CCOCC2)C[C@@H]1c1ccccc1-3", "CC50": "> 10"}
{"smiles": "O=C(O)c1ccc2c(C3CCCCC3)c3n(c2c1)C[C@@]1(C(=O)N2CCOCC2)C[C@H]1c1ccccc1-3", "CC50": "> 10"}
{"smiles": "CN(C)S(=O)(=O)NC(=O)c1ccc2c(C3CCCCC3)c3n(c2c1)C[C@]1(C(=O)N2CCOCC2)C[C@@H]1c1ccccc1-3", "CC50": "> 10"}
{"smiles": "CN(C)S(=O)(=O)NC(=O)c1ccc2c(C3CCCCC3)c3n(c2c1)CC1(C(=O)N2CCOCC2)CC1c1ccccc1-3", "note": "(racemic)", "CC50": "> 10"}
{"smiles": "COc1ccc2c(c1)C1CC1(C(=O)N1CCOCC1)Cn1c-2c(C2CCCCC2)c2ccc(C(=O)NS(=O)(=O)N(C)C)cc21", "note": "(racemic)", "CC50": "> 10"}
{"target": "not listed separately", "test": "Inhibition of HCV Con1 genotype 1b recombinant wild-type NS5B polymerase-mediated incorporation of radiolabeled nucleotides by scintillation proximity assay", "set-up": "species or system Hepatitis C virus (isolate Con1)", "settings": "not given", "units": {"IC50": "µM"}}
{"smiles": "CN(C)S(=O)(=O)NC(=O)c1ccc2c(C3CCCCC3)c3n(c2c1)CC(C(=O)N1CCOCC1)=Cc1ccccc1-3", "IC50": 0.052}
{"smiles": "COc1ccc2c(c1)C=C(C(=O)N1CCOCC1)Cn1c-2c(C2CCCCC2)c2ccc(C(=O)NS(=O)(=O)N(C)C)cc21", "IC50": 0.049}
{"smiles": "O=C(O)c1ccc2c(C3CCCCC3)c3n(c2c1)C[C@]1(C(=O)N2CCOCC2)C[C@@H]1c1ccccc1-3", "IC50": 0.093}
{"smiles": "O=C(O)c1ccc2c(C3CCCCC3)c3n(c2c1)C[C@@]1(C(=O)N2CCOCC2)C[C@H]1c1ccccc1-3", "IC50": 0.022}
{"smiles": "CN(C)S(=O)(=O)NC(=O)c1ccc2c(C3CCCCC3)c3n(c2c1)C[C@]1(C(=O)N2CCOCC2)C[C@@H]1c1ccccc1-3", "IC50": 0.165}
{"smiles": "CN(C)S(=O)(=O)NC(=O)c1ccc2c(C3CCCCC3)c3n(c2c1)CC1(C(=O)N2CCOCC2)CC1c1ccccc1-3", "note": "(racemic)", "IC50": 0.094}
{"smiles": "COc1ccc2c(c1)C1CC1(C(=O)N1CCOCC1)Cn1c-2c(C2CCCCC2)c2ccc(C(=O)NS(=O)(=O)N(C)C)cc21", "note": "(racemic)", "IC50": 0.022}
{"system": "Hepatitis C virus", "test": "Antiviral activity against Hepatitis C virus Con1 genotype 1b infected in human HuH7 cells after 3 days by FRET assay in presence of 40% human serum", "format": "functional, organism-based, Hepacivirus hominis", "settings": "isolate Con1, Huh-7, 72 h", "units": {"EC50": "µM"}}
{"smiles": "O=C(O)c1ccc2c(C3CCCCC3)c3n(c2c1)C[C@@]1(C(=O)N2CCOCC2)C[C@H]1c1ccccc1-3", "EC50": 0.484}
{"smiles": "CN(C)S(=O)(=O)NC(=O)c1ccc2c(C3CCCCC3)c3n(c2c1)CC1(C(=O)N2CCOCC2)CC1c1ccccc1-3", "note": "(racemic)", "EC50": 0.821}
{"smiles": "COc1ccc2c(c1)C1CC1(C(=O)N1CCOCC1)Cn1c-2c(C2CCCCC2)c2ccc(C(=O)NS(=O)(=O)N(C)C)cc21", "note": "(racemic)", "EC50": 0.3}
{"system": "Hepatitis C virus", "test": "Antiviral activity against Hepatitis C virus H77c genotype 1a infected in human HuH7 cells after 3 days by FRET assay", "format": "functional, organism-based, Hepacivirus hominis", "settings": "genotype 1a H77, Huh-7, 72 h", "units": {"EC50": "µM"}}
{"smiles": "CN(C)S(=O)(=O)NC(=O)c1ccc2c(C3CCCCC3)c3n(c2c1)CC(C(=O)N1CCOCC1)=Cc1ccccc1-3", "EC50": 0.119}
{"smiles": "COc1ccc2c(c1)C=C(C(=O)N1CCOCC1)Cn1c-2c(C2CCCCC2)c2ccc(C(=O)NS(=O)(=O)N(C)C)cc21", "EC50": 0.061}
{"smiles": "O=C(O)c1ccc2c(C3CCCCC3)c3n(c2c1)C[C@]1(C(=O)N2CCOCC2)C[C@@H]1c1ccccc1-3", "EC50": 0.472}
{"smiles": "O=C(O)c1ccc2c(C3CCCCC3)c3n(c2c1)C[C@@]1(C(=O)N2CCOCC2)C[C@H]1c1ccccc1-3", "EC50": 0.041}
{"smiles": "CN(C)S(=O)(=O)NC(=O)c1ccc2c(C3CCCCC3)c3n(c2c1)C[C@]1(C(=O)N2CCOCC2)C[C@@H]1c1ccccc1-3", "EC50": 0.259}
{"smiles": "CN(C)S(=O)(=O)NC(=O)c1ccc2c(C3CCCCC3)c3n(c2c1)CC1(C(=O)N2CCOCC2)CC1c1ccccc1-3", "note": "(racemic)", "EC50": 0.044}
{"smiles": "COc1ccc2c(c1)C1CC1(C(=O)N1CCOCC1)Cn1c-2c(C2CCCCC2)c2ccc(C(=O)NS(=O)(=O)N(C)C)cc21", "note": "(racemic)", "EC50": 0.054}
{"target": "RNA-directed RNA polymerase (Hepacivirus hominis, UniProt O39930, P495A)", "sequence (O39930 entry or part of it P495A)": "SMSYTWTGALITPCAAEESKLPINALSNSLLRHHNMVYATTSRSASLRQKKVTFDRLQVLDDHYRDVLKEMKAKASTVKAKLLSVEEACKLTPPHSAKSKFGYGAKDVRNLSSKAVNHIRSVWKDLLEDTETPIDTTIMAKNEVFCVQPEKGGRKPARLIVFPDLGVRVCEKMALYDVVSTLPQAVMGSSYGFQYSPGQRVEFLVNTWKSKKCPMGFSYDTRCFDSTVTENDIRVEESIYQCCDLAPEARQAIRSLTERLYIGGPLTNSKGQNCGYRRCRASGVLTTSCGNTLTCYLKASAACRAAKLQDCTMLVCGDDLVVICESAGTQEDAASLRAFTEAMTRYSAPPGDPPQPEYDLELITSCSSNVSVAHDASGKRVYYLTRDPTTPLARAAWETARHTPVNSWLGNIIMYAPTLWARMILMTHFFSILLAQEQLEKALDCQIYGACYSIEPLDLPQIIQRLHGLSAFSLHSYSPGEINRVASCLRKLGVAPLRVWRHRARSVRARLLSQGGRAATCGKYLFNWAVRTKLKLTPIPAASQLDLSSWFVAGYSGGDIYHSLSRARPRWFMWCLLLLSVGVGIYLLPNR", "test": "Inhibition of HCV Con1 genotype 1b NS5B RNA dependent RNA polymerase P495A mutant-mediated incorporation of radiolabeled nucleotides by scintillation proximity assay", "set-up": "species or system Hepatitis C virus (isolate Con1)", "settings": "not given", "units": {"EC50": "µM"}}
{"smiles": "CN(C)S(=O)(=O)NC(=O)c1ccc2c(C3CCCCC3)c3n(c2c1)CC(C(=O)N1CCOCC1)=Cc1ccccc1-3", "EC50": 1.1}
{"smiles": "COc1ccc2c(c1)C=C(C(=O)N1CCOCC1)Cn1c-2c(C2CCCCC2)c2ccc(C(=O)NS(=O)(=O)N(C)C)cc21", "EC50": 0.239}
{"smiles": "O=C(O)c1ccc2c(C3CCCCC3)c3n(c2c1)C[C@]1(C(=O)N2CCOCC2)C[C@@H]1c1ccccc1-3", "EC50": 0.89}
{"smiles": "O=C(O)c1ccc2c(C3CCCCC3)c3n(c2c1)C[C@@]1(C(=O)N2CCOCC2)C[C@H]1c1ccccc1-3", "EC50": 0.38}
{"smiles": "CN(C)S(=O)(=O)NC(=O)c1ccc2c(C3CCCCC3)c3n(c2c1)C[C@]1(C(=O)N2CCOCC2)C[C@@H]1c1ccccc1-3", "EC50": 0.63}
{"smiles": "CN(C)S(=O)(=O)NC(=O)c1ccc2c(C3CCCCC3)c3n(c2c1)CC1(C(=O)N2CCOCC2)CC1c1ccccc1-3", "note": "(racemic)", "EC50": 0.165}
{"smiles": "COc1ccc2c(c1)C1CC1(C(=O)N1CCOCC1)Cn1c-2c(C2CCCCC2)c2ccc(C(=O)NS(=O)(=O)N(C)C)cc21", "note": "(racemic)", "EC50": 0.385}
{"system": "Hepatitis C virus", "test": "Antiviral activity against Hepatitis C virus Con1 genotype 1b infected in human HuH7 cells after 3 days by FRET assay", "format": "functional, organism-based, Hepacivirus hominis", "settings": "isolate Con1, Huh-7, 72 h", "units": {"EC50": "µM"}}
{"smiles": "CN(C)S(=O)(=O)NC(=O)c1ccc2c(C3CCCCC3)c3n(c2c1)CC(C(=O)N1CCOCC1)=Cc1ccccc1-3", "EC50": 0.148}
{"smiles": "COc1ccc2c(c1)C=C(C(=O)N1CCOCC1)Cn1c-2c(C2CCCCC2)c2ccc(C(=O)NS(=O)(=O)N(C)C)cc21", "EC50": 0.062}
{"smiles": "O=C(O)c1ccc2c(C3CCCCC3)c3n(c2c1)C[C@]1(C(=O)N2CCOCC2)C[C@@H]1c1ccccc1-3", "EC50": 0.336}
{"smiles": "O=C(O)c1ccc2c(C3CCCCC3)c3n(c2c1)C[C@@]1(C(=O)N2CCOCC2)C[C@H]1c1ccccc1-3", "EC50": 0.051}
{"smiles": "CN(C)S(=O)(=O)NC(=O)c1ccc2c(C3CCCCC3)c3n(c2c1)C[C@]1(C(=O)N2CCOCC2)C[C@@H]1c1ccccc1-3", "EC50": 0.143}
{"smiles": "CN(C)S(=O)(=O)NC(=O)c1ccc2c(C3CCCCC3)c3n(c2c1)CC1(C(=O)N2CCOCC2)CC1c1ccccc1-3", "note": "(racemic)", "EC50": 0.082}
{"smiles": "COc1ccc2c(c1)C1CC1(C(=O)N1CCOCC1)Cn1c-2c(C2CCCCC2)c2ccc(C(=O)NS(=O)(=O)N(C)C)cc21", "note": "(racemic)", "EC50": 0.061}
